Assay results from US11234960B2, “Compositions and methods for improving mitochondrial function and treating neurodegenerative diseases and cognitive disorders” (Amazentis SA, priority 2010, dated 2022).

Key:
Assay type in all cases: in vivo
[1] = test system: C. elegans strain SJ4103; assay: Mitochondrial GFP reporter in muscle of C. elegans strain SJ4103; details: 50 μM from eggs, GFP monitored after one day of adulthood (FIG. 26)
Experimental: C. elegans strains were cultured at 20° C. on nematode growth media agar plates seeded with HT115 bacteria and containing 50 μM urolithin A or a corresponding concentration of DMSO as a control. […]. The strains used were the SJ4103 (zcIs14[myo-3::GFP(mit)]), which is a stable transgenic line expressing a mitochondrially localized green fluorescent protein (GFP) with a cleavable mitochondrial import signal peptide under the control of the specific body wall muscle promoter myo-3. GFP expression and quantification was carried out according to the protocol previously described (Durieux et al., 2011). Worms were treated with 50 μM urolithin A from eggs, and GFP was monitored after one day of adulthood. Fluorimetric assays were performed using a Victor X4 multilabel plate reader (Perkin-Elmer Life Science). Eighty worms were picked at random (20 worms per well of a black-walled 96-well plate) and each well was read four times and averaged.

[2] = test system: C57BL/6J mice exposed to chronic unpredictable stress; assay: Morris water maze in chronically stressed mice; details: 25 mg/kg/d (FIG. 34)
Experimental: Three weeks before the initiation of the chronic stress protocol mice were separated into four different groups. One group received standard mouse chow diet (Control), while the remaining three groups received varying doses of extract 1011, an extract derived from pomegranate juice. Low dose corresponded to an extract dose of 21 mg/kg/d of gallic acid equivalents of polyphenols (GAE PPE), the medium dose corresponded to an extract dose of 43 mg/kg/d of GAE PPE, the high dose corresponded to an extract dose of 86 mg/kg/d of GAE PPE (see Table 5).
Three weeks before the initiation of the chronic stress protocol, mice were separated into two groups. […]
The unpredictable chronic stress protocol involved exposing animals to a daily stressful situation at an unpredictable moment for 4 weeks (between 8 am and 4 pm, and randomly distributed over the 28 days). […] All animals were weighed and the state of their coat was evaluated on a regular basis (every 3-5 days). […]
Each trial started by introducing the mouse into the maze with the aid of a cup, facing the pool wall, and at one of four possible positions that were randomly balanced between trials and days. The distance between the mouse and the platform was measured at each sampling time, with 25 sampling times collected per second. […]

[3] = test system: maternally separated mice; assay: Forced swim test in early-life stress mice; details: early-life stressed mice, 90 mg/kg/day in food (FIG. 41)
Experimental: At postnatal day 1, pups were culled to have 6 pups per mother. From postnatal day 1 to 14, unpredictable maternal separation (MS) of a period of 3 hours daily was carried out. Maternal separation was performed at random times (from 8 am to 2 pm) to avoid the habituation of the mother to the procedure. The protocol consisted of removing pups from their mother to another cage at room temperature for a 3 hour period, after which the pups were returned to their original nest. These groups are denoted as early-life stress in the figures. A control group of dam/pups was left undisturbed and is denoted in the figures as normal.
One week after maternal separation mice were separated into two groups. One control group received the standard mouse chow diet (Untreated), while the other group received the ellagitannin punicalagin admixed into the food and designed to deliver a dose of 90 mg/kg/day to the mice. Treatment with the diet began 1 week after the termination of the maternal separation treatment. […]
Animals were considered to be engaged in swimming and mobile if there was a clear displacement of the body. […] Animal behavior was recorded over a 6-minute test period using a camera and a mirror behind the cylinder. The first 2 minutes and the last 4 minutes of the swimming were analyzed separately for mouse swimming activity. […]

| Structure (SMILES) | expression of mitochondrial GFP-reporter driven by myo-3 promoter (fluorescence) [1] | Morris water maze learning, variability of distance to platform between sequential trials [2] | immobility / swimming activity in forced swim test [3] |
| --- | --- | --- | --- |
| O=c1oc2cc(O)ccc2c2ccc(O)cc12 [urolithin A, 3,8-Dihydroxydibenzo-α-pyrone] | induced the expression of the mitochondrial GFP-reporter | stabilization of this variability | – |
| O=C1O[C@H]2[C@@H]3OC(=O)c4cc(O)c(O)c(O)c4-c4c(O)c(O)c5oc(=O)c6c(c(O)c(O)c7oc(=O)c4c5c76)-c4c(cc(O)c(O)c4O)C(=O)OC[C@H]3OC(O)[C@@H]2OC(=O)c2cc(O)c(O)c(O)c2-c2c1cc(O)c(O)c2O (mixture of isomers) [punicalagin, 2,3 hexahydroxydiphenoyl-4,6-gallagylglucose] | – | – | increased swimming activity to levels seen in non-stressed mice |
